The text below walks through data of US8975398B2, “NAMPT inhibitors” (AbbVie Inc., priority 2012, dated 2015).

In one test the target is NAMPT (Homo sapiens, UniProt P43490). The experiment in a line: Time-Resolved Fluorescence Resonance Energy Transfer (TR-FRET) Binding Assay of NAMPT with PRPP. The settings on record: 2 nM NAMPT, 2 nM probe, 200 uM PRPP and 2.5 mM ATP, equilibrated 16 hours. In a few lines: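 Binding measured by TR-FRET after a 16-hour equilibration meant to permit enzymatic compound modification. Substrates present at 200 uM PRPP and 2.5 mM ATP, with 2 nM enzyme, 2 nM probe, 1 nM Tb-anti-His antibody and 2% DMSO final.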

Test [1] addresses NAMPT (human, recombinant, C-terminally His-tagged) (Homo sapiens, UniProt P43490). Nature of the test: Time-Resolved Fluorescence Resonance Energy Transfer (TR-FRET) Binding Assay of NAMPT. The note with it: 6.8 nM NAMPT, 200 nM probe, equilibrated 3 hours, absence of substrates. In a few lines:
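Probe displacement measured by TR-FRET (Ex 337 nm; 520/495 nm ratio) after 3 h room-temperature equilibration of compound with 6.8 nM His-tagged human NAMPT, 1 nM Tb-anti-His antibody and 200 nM Oregon Green 488 nicotinamide-site probe, pH 7.5 HEPES buffer, 2% DMSO. Control-normalized data fit four-parameter logistic for IC50.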
A general note: Time-resolved FRET reads energy transfer from a long-lived donor to a nearby acceptor.

Chain of NAMPT (human, recombinant, C-terminally His-tagged) (P43490 whole entry): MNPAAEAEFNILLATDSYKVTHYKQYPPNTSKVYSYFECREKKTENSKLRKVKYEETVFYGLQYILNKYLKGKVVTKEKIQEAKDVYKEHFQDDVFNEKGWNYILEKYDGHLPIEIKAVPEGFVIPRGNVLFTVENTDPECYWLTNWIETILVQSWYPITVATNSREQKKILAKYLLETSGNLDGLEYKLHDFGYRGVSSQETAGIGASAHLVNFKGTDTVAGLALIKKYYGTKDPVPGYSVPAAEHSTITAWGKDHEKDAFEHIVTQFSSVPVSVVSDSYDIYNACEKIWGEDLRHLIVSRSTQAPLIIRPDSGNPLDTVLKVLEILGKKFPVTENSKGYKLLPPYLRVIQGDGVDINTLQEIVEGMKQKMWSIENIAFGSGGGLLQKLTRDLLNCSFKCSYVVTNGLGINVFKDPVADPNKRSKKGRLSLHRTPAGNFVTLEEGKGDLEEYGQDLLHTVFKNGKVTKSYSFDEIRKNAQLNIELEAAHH
Chain of NAMPT (P43490 whole entry): as above

For orientation: IC50 means the point on the concentration scale where inhibition reaches its midpoint. `O=C(Nc1ccc(OC2CCN(C(=O)c3ccc(Cl)cc3)CC2)cc1)C1CN(c2ccnnc2)C1` [Example 297, N-(4-{[1-(4-chlorobenzoyl)piperidin-4-yl]oxy}phenyl)-1-(pyridazin-4-yl)azetidine-3-carboxamide]: the figures for the 50% inhibitory concentration (IC50) (at NAMPT; in test [1]) were 47 nM and 104 nM, respectively.
On to `O=C(Nc1ccc(OC2CCN(C(=O)C3CCOC3)CC2)cc1)C1CN(c2ccnnc2)C1` (stereo not shown) [Example 298, 1-(pyridazin-4-yl)-N-(4-{[1-(tetrahydrofuran-3-ylcarbonyl)piperidin-4-yl]oxy}phenyl)azetidine-3-carboxamide], for which the concentration for half-maximal inhibition (IC50) on NAMPT worked out at 61.1 nM; in test [1] it was 192 nM.
`O=C(Nc1ccc(OC2CCN(C(=O)c3cc(F)cc(F)c3)CC2)cc1)C1CN(c2ccnnc2)C1` [Example 299, N-(4-{[1-(3,5-difluorobenzoyl)piperidin-4-yl]oxy}phenyl)-1-(pyridazin-4-yl)azetidine-3-carboxamide]: the figures for the IC50 (at NAMPT; in test [1]) were 86.9 nM and 154 nM, respectively.
For the molecule `CCC(C)(C)C(=O)N1CCC(Oc2ccc(NC(=O)C3CN(c4ccnnc4)C3)cc2)CC1` [Example 300, N-(4-{[1-(2,2-dimethylbutanoyl)piperidin-4-yl]oxy}phenyl)-1-(pyridazin-4-yl)azetidine-3-carboxamide], the 50% inhibitory concentration (IC50) on NAMPT amounted to 39.1 nM; in test [1] it was 64.2 nM.
The like results for `O=C(Nc1ccc(OC2CCN(C(=O)C3CC3)CC2)cc1)C1CN(c2ccnnc2)C1` [Example 301, N-(4-{[1-(cyclopropylcarbonyl)piperidin-4-yl]oxy}phenyl)-1-(pyridazin-4-yl)azetidine-3-carboxamide] were, in that order, 48.3 nM and 143 nM.
Turning to `O=C(Nc1ccc(OC2CCN(C(=O)C3CCCO3)CC2)cc1)C1CN(c2ccnnc2)C1` (stereo not shown) [Example 302, 1-(pyridazin-4-yl)-N-(4-{[1-(tetrahydrofuran-2-ylcarbonyl)piperidin-4-yl]oxy}phenyl)azetidine-3-carboxamide], the IC50 stood at 48.3 nM on NAMPT and 150 nM in test [1].
On to `O=C(Nc1ccc(OC2CCN(C(=O)c3cccs3)CC2)cc1)C1CN(c2ccnnc2)C1` [Example 303, 1-(pyridazin-4-yl)-N-(4-{[1-(thiophen-2-ylcarbonyl)piperidin-4-yl]oxy}phenyl)azetidine-3-carboxamide], for which the concentration for half-maximal inhibition (IC50) is 15.5 nM on NAMPT and 30.9 nM in test [1].
On to `Cc1ccc(C(=O)N2CCC(Oc3ccc(NC(=O)C4CN(c5ccnnc5)C4)cc3)CC2)s1` [Example 304, N-[4-({1-[(5-methylthiophen-2-yl)carbonyl]piperidin-4-yl}oxy)phenyl]-1-(pyridazin-4-yl)azetidine-3-carboxamide], for which the IC50 was determined as 24.2 nM on NAMPT and 55.4 nM in test [1].
The matching figures for `O=C(Nc1ccc(OC2CCN(C(=O)Cc3cccc(C(F)(F)F)c3)CC2)cc1)C1CN(c2ccnnc2)C1` [Example 305, 1-(pyridazin-4-yl)-N-{4-[(1-{[3-(trifluoromethyl)phenyl]acetyl}piperidin-4-yl)oxy]phenyl}azetidine-3-carboxamide]: 35 nM and 109 nM.
On to `O=C(Nc1ccc(OC2CCN(C(=O)C3CCOCC3)CC2)cc1)C1CN(c2ccnnc2)C1` [Example 306, 1-(pyridazin-4-yl)-N-(4-{[1-(tetrahydro-2H-pyran-4-ylcarbonyl)piperidin-4-yl]oxy}phenyl)azetidine-3-carboxamide], for which the half-inhibitory concentration (IC50) on NAMPT is 46.3 nM; in test [1], 112 nM.
With `CC[C@H](C)C(=O)N1CCC(Oc2ccc(NC(=O)C3CN(c4ccnnc4)C3)cc2)CC1` [Example 307, N-[4-({1-[(2S)-2-methylbutanoyl]piperidin-4-yl}oxy)phenyl]-1-(pyridazin-4-yl)azetidine-3-carboxamide], the IC50 on NAMPT came out at 15.9 nM; in test [1], 37.7 nM.
Turning to `O=C(Nc1ccc(OC2CCN(C(=O)Cc3ccccc3F)CC2)cc1)C1CN(c2ccnnc2)C1` [Example 308, N-[4-({1-[(2-fluorophenyl)acetyl]piperidin-4-yl}oxy)phenyl]-1-(pyridazin-4-yl)azetidine-3-carboxamide], the concentration for half-maximal inhibition (IC50) at NAMPT worked out at 18.4 nM; in test [1] it was 36.9 nM.
Consider `CC(C)Cn1cc(-c2ccc(C(=O)NC3CN(c4cccnn4)C3)o2)cn1` [Example 309, 5-[1-(2-methylpropyl)-1H-pyrazol-4-yl]-N-[1-(pyridazin-3-yl)azetidin-3-yl]furan-2-carboxamide], for which the values for the IC50 (at NAMPT; in test [1]) were 0.293 nM and 4150 nM, respectively.
Consider `CC(C)C(=O)N1CCC(c2ccc(NC(=O)[C@H]3CCN(c4cccnn4)C3)cc2)CC1` [Example 310, (3S)—N-{4-[1-(2-methylpropanoyl)piperidin-4-yl]phenyl}-1-(pyridazin-3-yl)pyrrolidine-3-carboxamide], for which the half-maximal inhibitory concentration (IC50) at NAMPT was found to be 5.37 nM; in test [1], 456 nM.
The matching figures for `O=C(Nc1ccc(C2CCN(C(=O)c3ccccc3)CC2)cc1)[C@H]1CCN(c2cccnn2)C1` [Example 311, (3S)—N-[4-(1-benzoylpiperidin-4-yl)phenyl]-1-(pyridazin-3-yl)pyrrolidine-3-carboxamide]: 3.96 nM and 30.2 nM.
On to `O=C(Nc1ccc(C2CCN(C(=O)CC3CCOCC3)CC2)cc1)[C@H]1CCN(c2cccnn2)C1` [Example 312, (3S)-1-(pyridazin-3-yl)-N-{4-[1-(tetrahydro-2H-pyran-4-ylacetyl)piperidin-4-yl]phenyl}pyrrolidine-3-carboxamide], for which the 50% inhibitory concentration (IC50) turned out to be 8.94 nM on NAMPT and 1130 nM in test [1].
Consider `CC(C)(C)C(=O)N1CCC(c2ccc(NC(=O)[C@H]3CCN(c4cccnn4)C3)cc2)CC1` [Example 313, (3S)—N-{4-[1-(2,2-dimethylpropanoyl)piperidin-4-yl]phenyl}-1-(pyridazin-3-yl)pyrrolidine-3-carboxamide], for which the half-inhibitory concentration (IC50) at NAMPT turned out to be 4.13 nM; in test [1] it was 217 nM.
The like results for `CC(C)(C)OC(=O)N1CCC(c2ccc(C(=O)NC3CN(c4cccnn4)C3)cc2)CC1` [Example 314, tert-butyl 4-(4-{[1-(pyridazin-3-yl)azetidin-3-yl]carbamoyl}phenyl)piperidine-1-carboxylate] were, in that order, 0.572 nM and 3860 nM.
With `CC(C)Cn1cc(-c2ccc(C(=O)NC3CN(c4cccnn4)C3)s2)cn1` [Example 315, 5-[1-(2-methylpropyl)-1H-pyrazol-4-yl]-N-[1-(pyridazin-3-yl)azetidin-3-yl]thiophene-2-carboxamide], the IC50 on NAMPT was 0.641 nM; in test [1], 469 nM.
The matching figures for `CC(=O)N1CCC(c2ccc(NC(=O)C3CN(c4cccnn4)C3)cc2)CC1` [Example 316, N-[4-(1-acetylpiperidin-4-yl)phenyl]-1-(pyridazin-3-yl)azetidine-3-carboxamide]: 0.924 nM and 104 nM.
As to `CCCC(=O)N1CCC(c2ccc(NC(=O)C3CN(c4cccnn4)C3)cc2)CC1` [Example 317, N-[4-(1-butanoylpiperidin-4-yl)phenyl]-1-(pyridazin-3-yl)azetidine-3-carboxamide], the half-maximal inhibitory concentration (IC50) at NAMPT came to 0.991 nM; in test [1] it was 43.9 nM.
For the molecule `CCCCC(=O)N1CCC(c2ccc(NC(=O)C3CN(c4cccnn4)C3)cc2)CC1` [Example 318, N-[4-(1-pentanoylpiperidin-4-yl)phenyl]-1-(pyridazin-3-yl)azetidine-3-carboxamide], the results for the IC50 (on NAMPT; in test [1]) were 0.716 nM and 37.7 nM, respectively.
As for `CCC(C)C(=O)N1CCC(c2ccc(NC(=O)C3CN(c4cccnn4)C3)cc2)CC1` (stereo not shown) [Example 319, N-{4-[1-(2-methylbutanoyl)piperidin-4-yl]phenyl}-1-(pyridazin-3-yl)azetidine-3-carboxamide], the results for the IC50 (at NAMPT; in test [1]) were 0.747 nM and 24.9 nM, respectively.
The matching figures for `CC(C)CC(=O)N1CCC(c2ccc(NC(=O)C3CN(c4cccnn4)C3)cc2)CC1` [Example 320, N-{4-[1-(3-methylbutanoyl)piperidin-4-yl]phenyl}-1-(pyridazin-3-yl)azetidine-3-carboxamide]: 0.611 nM and 26.4 nM.
For the molecule `CCCCCC(=O)N1CCC(c2ccc(NC(=O)C3CN(c4cccnn4)C3)cc2)CC1` [Example 321, N-[4-(1-hexanoylpiperidin-4-yl)phenyl]-1-(pyridazin-3-yl)azetidine-3-carboxamide], the half-maximal inhibitory concentration (IC50) on NAMPT was 0.864 nM; in test [1] it was 38.7 nM.
With `CCCC(C)C(=O)N1CCC(c2ccc(NC(=O)C3CN(c4cccnn4)C3)cc2)CC1` (stereo not shown) [Example 322, N-{4-[1-(2-methylpentanoyl)piperidin-4-yl]phenyl}-1-(pyridazin-3-yl)azetidine-3-carboxamide], the values for the 50% inhibitory concentration (IC50) (on NAMPT; in test [1]) were 0.843 nM and 28.6 nM, respectively.
The like results for `CCC(C)CC(=O)N1CCC(c2ccc(NC(=O)C3CN(c4cccnn4)C3)cc2)CC1` (stereo not shown) [Example 323, N-{4-[1-(3-methylpentanoyl)piperidin-4-yl]phenyl}-1-(pyridazin-3-yl)azetidine-3-carboxamide] were, in that order, 0.885 nM and 25.3 nM.
Turning to `CC(C)CCC(=O)N1CCC(c2ccc(NC(=O)C3CN(c4cccnn4)C3)cc2)CC1` [Example 324, N-{4-[1-(4-methylpentanoyl)piperidin-4-yl]phenyl}-1-(pyridazin-3-yl)azetidine-3-carboxamide], the figures for the IC50 (on NAMPT; in test [1]) were 1.04 nM and 47.3 nM, respectively.
Turning to `CCC(C)(C)C(=O)N1CCC(c2ccc(NC(=O)C3CN(c4cccnn4)C3)cc2)CC1` [Example 325, N-{4-[1-(2,2-dimethylbutanoyl)piperidin-4-yl]phenyl}-1-(pyridazin-3-yl)azetidine-3-carboxamide], the IC50 on NAMPT is 1.08 nM; in test [1], 14 nM.
